This passage reports TGI and GI50 results from PubChem BioAssay (NCI).

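Protocol summary: plate cells (96-well), add compound at 5 concentrations, incubate 48 h, interpolate endpoints linearly. At the GI50, growth is halved. At the TGI there is no net growth.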

Some test systems named below: NCI-H460 lung; BT-549 breast; HCT-116 colon; K-562 leukemia; EKVX NSCLC; SK-OV-3 ovarian; NCI/ADR-RES ovarian; SF-295 CNS; A549 NSCLC; A498 renal.
What all share (assay): growth of human tumour cells (NCI), 48 h

Turning to `O=Nc1c(-c2cccc([N+](=O)[O-])c2)nc2cnccn12`, the TGI is greater than 100 µM with NCI-H460 lung; greater than 100 µM with BT-549 breast; 18.8 µM with HCT-116 colon; 49.2 µM with K-562 leukemia; greater than 100 µM in the experiment on EKVX NSCLC; greater than 100 µM in the experiment on SK-OV-3 ovarian. Besides, the TGI in the experiment with NCI/ADR-RES ovarian was 54.5 µM; with SF-295 CNS, greater than 100 µM; in the experiment on A549 NSCLC, 83.8 µM.
`N#Cc1c2ccccc2c2n1-c1ccccc1OC(c1ccccc1)C2=O` (stereo unspecified): the GI50 with NCI-H460 lung was 3.69 µM; in the experiment with A498 renal, 1.84 µM; in the experiment with BT-549 breast, 2.84 µM; in the experiment on HCT-116 colon, 2.84 µM; in the experiment on K-562 leukemia, 3.19 µM; with SK-OV-3 ovarian, 6.03 µM. The GI50 in the experiment with NCI/ADR-RES ovarian is 3.2 µM; in the experiment with SF-295 CNS it was 3.42 µM; in the experiment with A549 NSCLC, 3.11 µM. The TGI amounted to 18.8 µM in the experiment on NCI-H460 lung; 6.89 µM with A498 renal; 7.76 µM with BT-549 breast; 12.4 µM in the experiment on HCT-116 colon; 13.9 µM with K-562 leukemia; 48.6 µM with SK-OV-3 ovarian. Also, the TGI in the experiment on NCI/ADR-RES ovarian worked out at 12 µM; in the experiment on SF-295 CNS, 34.4 µM; with A549 NSCLC, 29.3 µM.
Regarding `COc1ccc(-c2nsc3c2NC(=O)CC3c2ccc3c(c2)OCO3)cc1` (stereo unspecified), the GI50 is 0.498 µM in the experiment with NCI-H460 lung; 1.05 µM with A498 renal; 2.54 µM in the experiment on BT-549 breast; 0.574 µM in the experiment with HCT-116 colon; 0.408 µM with K-562 leukemia; 2.33 µM in the experiment on SK-OV-3 ovarian. The GI50 in the experiment with NCI/ADR-RES ovarian is 0.524 µM; in the experiment with SF-295 CNS, 1.92 µM; in the experiment with A549 NSCLC, 0.841 µM. Further, the TGI was greater than 100 µM in the experiment on NCI-H460 lung; 7.05 µM in the experiment with A498 renal; greater than 100 µM with BT-549 breast; greater than 100 µM with HCT-116 colon; greater than 100 µM in the experiment with K-562 leukemia; greater than 100 µM in the experiment on SK-OV-3 ovarian. The values for the TGI in the experiment with NCI/ADR-RES ovarian, in the experiment on SF-295 CNS and in the experiment with A549 NSCLC were 6.12 µM, 25.9 µM and greater than 100 µM, respectively.
On to `O=CN1N=C(c2ccc(Nc3ccnc4cc(Cl)ccc34)cc2)CC1c1ccccc1` (stereo unspecified), for which the GI50 was 3.96 µM with NCI-H460 lung; 1.3 µM in the experiment with A498 renal; 3.81 µM with BT-549 breast; 3.58 µM with HCT-116 colon; 4.94 µM with EKVX NSCLC; 11.3 µM with SK-OV-3 ovarian. For the same compound, the GI50 is 2.69 µM in the experiment on NCI/ADR-RES ovarian, 2.41 µM in the experiment with SF-295 CNS and 4.05 µM in the experiment with A549 NSCLC. For the same compound, the TGI in the experiment with NCI-H460 lung was greater than 100 µM; in the experiment with A498 renal, 6.79 µM; in the experiment with BT-549 breast, 15.6 µM; with HCT-116 colon, 18.5 µM; in the experiment with EKVX NSCLC, greater than 100 µM; with SK-OV-3 ovarian it was greater than 100 µM. Besides, the TGI with NCI/ADR-RES ovarian is 59.8 µM; in the experiment on SF-295 CNS, 8.91 µM; in the experiment with A549 NSCLC, greater than 100 µM.
Regarding `CSc1ccc(-c2cc(-c3ccc(NC(=O)CCCN4CCCC4)cc3)nc(-c3ccc(NC(=O)CCCN4CCCC4)cc3)c2)cc1`, the GI50 with NCI-H460 lung was 1.81 µM; in the experiment with BT-549 breast it was 2.21 µM; in the experiment on K-562 leukemia, 1.64 µM; in the experiment on SK-OV-3 ovarian, 2.97 µM; in the experiment with NCI/ADR-RES ovarian, 12.4 µM; in the experiment on SF-295 CNS, 3.29 µM. Besides, in the experiment with A549 NSCLC, the GI50 is 1.67 µM. The TGI came out at 3.28 µM with NCI-H460 lung; 5.49 µM in the experiment on BT-549 breast; 3.31 µM in the experiment with K-562 leukemia; 8.74 µM in the experiment with SK-OV-3 ovarian; 31.3 µM in the experiment on NCI/ADR-RES ovarian; 15.4 µM with SF-295 CNS. In addition, the TGI in the experiment on A549 NSCLC amounted to 3.17 µM.
For `COc1ccc(C2=CC(c3cc(OC)c(OC)c(OC)c3)NC(=O)N2)cc1OC` (stereo unspecified), the GI50 with NCI-H460 lung was 1.92 µM; in the experiment on A498 renal, 1.83 µM; in the experiment with HCT-116 colon it was 3.17 µM; in the experiment on K-562 leukemia, 1.96 µM; in the experiment on EKVX NSCLC, 2.85 µM; in the experiment with SK-OV-3 ovarian, 3.67 µM. Further, the GI50 with NCI/ADR-RES ovarian is 3.02 µM; in the experiment on SF-295 CNS, 2.34 µM; in the experiment on A549 NSCLC, 4.74 µM. For the same compound, the TGI was 5 µM in the experiment with NCI-H460 lung; 8.32 µM with A498 renal; 11.1 µM in the experiment with HCT-116 colon; 24.5 µM in the experiment with K-562 leukemia; 23.2 µM in the experiment on EKVX NSCLC; greater than 100 µM in the experiment on SK-OV-3 ovarian. Besides, the values for the TGI with NCI/ADR-RES ovarian, in the experiment with SF-295 CNS and in the experiment on A549 NSCLC were greater than 100 µM, 7.87 µM and greater than 100 µM, respectively.
On to `COc1cc(C(=O)/C=C/c2c(-c3ccc(F)cc3)nc3sc(C)cn23)cc(OC)c1OC`, for which the GI50 in the experiment on NCI-H460 lung is 3.87 µM; with BT-549 breast, 3.75 µM; in the experiment with HCT-116 colon, 2.92 µM; in the experiment with K-562 leukemia it was 5.46 µM; in the experiment on EKVX NSCLC it was 2.29 µM; with SK-OV-3 ovarian, 6.12 µM. Further, the GI50 is 2.63 µM with NCI/ADR-RES ovarian, 2.33 µM in the experiment on SF-295 CNS and 9.34 µM in the experiment with A549 NSCLC. The TGI with NCI-H460 lung, in the experiment on BT-549 breast, in the experiment with HCT-116 colon, with K-562 leukemia, with EKVX NSCLC and with SK-OV-3 ovarian was greater than 100 µM throughout. The TGI in the experiment on NCI/ADR-RES ovarian is 15.8 µM; with SF-295 CNS it was 26.7 µM; with A549 NSCLC, greater than 100 µM.
`N#Cc1cccc(C(=O)c2cnn(-c3ccc(F)cc3)c2N)c1`: the GI50 in the experiment with NCI-H460 lung, in the experiment on A498 renal, with BT-549 breast, with HCT-116 colon, in the experiment with K-562 leukemia and with SK-OV-3 ovarian was greater than 25 µM in each case. The GI50 with NCI/ADR-RES ovarian was greater than 25 µM; in the experiment on SF-295 CNS, greater than 20.1 µM; in the experiment on A549 NSCLC, greater than 25 µM. The TGI in the experiment with NCI-H460 lung, in the experiment with A498 renal, in the experiment on BT-549 breast, in the experiment on HCT-116 colon, in the experiment with K-562 leukemia and with SK-OV-3 ovarian was greater than 25 µM each time. Besides, the TGI in the experiment with NCI/ADR-RES ovarian, with SF-295 CNS and in the experiment with A549 NSCLC was greater than 25 µM throughout.
